This note sets out measurements from patent US20080269279A1, “Substituted furo[2,3-B] pyridine derivatives as cannabinoid-1 receptor modulators” (priority 2007, published 2008).

The structures appear in SMILES notation. Where two headings read alike, the source gives them in different places.

Experiment [1] has as its target T1, recombinant human CB1 receptor (Homo sapiens, UniProt P21554).
T1 construct: expressed in transfected cells
The experiment in a line: Cannabinoid Receptor-1 (CB1) Binding Assay ([3H]CP-55940 displacement). Here is the method: Binding affinity determination is based on recombinant human CB1 receptor expressed in Chinese Hamster Ovary (CHO) cells (Felder et al, Mol. Pharmacol. 48: 443-450, 1995). Total assay volume is 250 μl (240 μl CB1 receptor membrane solution plus 5 μl test compound solution plus 5 μl [3H]CP-55940 solution). Final concentration of [3H]CP-55940 is 0.6 nM. Binding buffer contains 50 mM Tris-HCl, pH 7.4, 2.5 mM EDTA, 5 mM MgCl2, 0.5 mg/mL fatty acid free bovine serum albumin and protease inhibitors (Cat#P8340, from Sigma). To initiate the binding reaction, 5 μl of radioligand solution is added, the mixture is incubated with gentle shaking on a shaker for 1.5 h at 30° C. The binding is terminated by using 96-well harvester and filtering through GF/C filter presoaked in 0.05% polyethylenimine. The bound radiolabel is quantitated using scintillation counter. Apparent binding affinities for various compounds are calculated from IC50 values (DeBlasi et al., Trends Pharmacol Sci 10: 227-229, 1989).

Experiment [2] addresses T1, recombinant human CB1 receptor. The experiment in a line: Cannabinoid Receptor-1 (CB1) Functional Activity Assay (intracellular cAMP in CB1-CHO cells). The class given is cell-based. Particulars: for functional mode at CB1 receptor: CB1 functional activity assay, cAMP. Here is the method: The functional activation of CB1 receptor is based on recombinant human CB1 receptor expressed in CHO cells (Felder et al, Mol. Pharmacol. 48: 443-450, 1995). To determine the agonist activity or inverse agonist activity of any test compound, 50 ul of CB1-CHO cell suspension are mixed with test compound and 70 ul assay buffer containing 0.34 mM 3-isobutyl-1-methylxanthine and 5.1 uM of forskolin in 96-well plates. The assay buffer is comprised of Earle's Balanced Salt Solution supplemented with 5 mM MgCl2 1 mM glutamine, 10 mM HEPES, and 1 mg/mL bovine serum albumin. The mixture is incubated at room temperature for 30 minutes, and terminated by adding 30 ul/well of 0.5M HCl. The total intracellular cAMP level is quantitated using the New England Nuclear Flashplate and cAMP radioimmunoassay kit.
To determine the antagonist activity of test compound, the reaction mixture also contains 0.5 nM of the agonist CP55940 (or 50 nM of methanandamide), and the reversal of the CP55940 (or methanandamide) effect is quantitated with increasing concentration of the test compound. Intracellular cAMP is determined as described above. An IC50 value for the test compound is calculated from the titration curve.

The test system of experiment [3] is human GABA α1β3β2 receptors. As to the kind of experiment: GABAa, 3H-muscimol binding assay. Particulars: activity at 10 μM as percentage of activity of control compound P18 at 10 μM (increase of 3H-muscimol binding). Here is the method:
Membranes from recombinant Ltk cells expressing human GABA α1β3β2 receptors were suspended in an ice-cold solution of 100 mM KCl, 10 mM KH2PO4, adjusted to pH=7.4 with 1 M KOH. Tritiated muscimol (PerkinElmer, Wellesley, Mass.) at a concentration of 2 nM, and serial five-fold dilutions of test compounds at 10 μM, 2.0 μM, 400 nM, 80 nM, 16 nM, 3.2 nM, 0.64 nM and 0.13 nM were mixed in 96-well plates containing 200 μL of membrane suspension. Cold muscimol and compound P18 were used as negative and positive controls respectively. The assay mixture was incubated at 4° C. for 2 hours, then harvested on GF/C filter plates and washed with ice-cold 50 mM Tris-Ci buffer. The filter plates were dried and counted in a Wallac MicroBeta® Trilux detector (Model 1450-030; PerkinElmer, Wellesley, Mass.), and the data were downloaded and analyzed using Prism 3.0. The activity of compound P18 at 10 μM was used as reference for the test compounds, and it was expressed as increasing ^3H-muscimol binding by 100%, whereas cold muscimol at 2 μM antagonized ^3H-muscimol binding by 100%. The tested compound's activity at 10 μM was expressed as a percentage of compound P18's activity at 10 μM.
As a reference, the parent compound (the compound not substituted with a R^4 heteroaryl, such as pyrazole or 1,2,4-oxadiazole, as indicated below) is also shown with its Gamma Amino Butyric Acid (GABA) Receptor activity. […] As a result, the compounds of the present invention in which R^4 is a heteroaryl, such as pyrazole or 1,2,4-oxadiazole, have the unexpected benefits of minimizing off target activity at the GABA receptor.
Note: % GABA is defined as the GABA activity of the indicated compound expressed as a percentage of the activity of control compound P18. NA=data not available.

The mark [4] stands for this setting: recombinant human CB1 receptor expressed in CHO cells, 0.6 nM [3H]CP-55940, read-out: CB1 binding IC50.
[5] abbreviates: CB1-CHO cells, forskolin-stimulated cAMP, read-out: EC50 in the CB1 functional activity assay.

T1 sequence (P21554 whole entry): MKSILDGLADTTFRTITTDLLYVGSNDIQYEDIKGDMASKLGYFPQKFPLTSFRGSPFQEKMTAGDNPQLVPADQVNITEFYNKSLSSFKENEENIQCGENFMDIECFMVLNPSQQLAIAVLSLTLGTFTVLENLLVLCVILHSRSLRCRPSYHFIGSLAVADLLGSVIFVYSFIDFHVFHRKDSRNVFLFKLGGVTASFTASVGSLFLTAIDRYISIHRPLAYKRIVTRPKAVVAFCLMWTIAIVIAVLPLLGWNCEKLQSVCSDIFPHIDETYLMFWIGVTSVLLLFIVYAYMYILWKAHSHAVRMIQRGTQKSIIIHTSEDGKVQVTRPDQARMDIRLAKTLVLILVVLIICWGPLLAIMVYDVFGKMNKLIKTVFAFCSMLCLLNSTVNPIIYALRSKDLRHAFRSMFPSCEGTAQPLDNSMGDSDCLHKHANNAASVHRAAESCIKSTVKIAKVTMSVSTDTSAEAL

As to `CC(=O)Nc1c(C(=O)C(C)(C)O)oc2nc(-c3ccc(-c4cn[nH]c4)cc3Cl)c(-c3ccc(Cl)cc3)cc12` [Example 1, N-[5-(4-Chlorophenyl)-6-[2-chloro-4-(1H-pyrazol-4-yl)phenyl]-2-(2-hydroxy-2-methylpropanoyl)furo[2,3-b]pyridin-3-yl]acetamide], the 50% inhibitory concentration (IC50) in experiment [1] (setting [4]) worked out at 2 nM. In addition, in experiment [2] (setting [5]), the EC50 was < 20 nM. In addition, in experiment [2], the “functional mode at CB1 receptor” value is given as “functional inverse agonists”. Also, the “% GABA Example” value in experiment [3] is reported as 38%.
As for `CC(=O)Nc1c(C(=O)C(C)C)oc2nc(-c3ccc(-c4cc[nH]n4)cc3Cl)c(-c3ccc(Cl)cc3)cc12` [Example 2, N-{5-(4-Chlorophenyl)-6-[2-chloro-4-(1H-pyrazol-3-yl)phenyl]-2-isobutyrylfuro[2,3-b]pyridin-3-yl}acetamide], in experiment [1] (setting [4]), the IC50 is 6 nM. For the same molecule, the EC50 in experiment [2] (setting [5]) was < 20 nM. Also, in experiment [2], the “functional mode at CB1 receptor” value was “functional inverse agonists”. The “% GABA Example” value in experiment [3] is on record as 17%.
For `Cc1n[nH]cc1-c1ccc(-c2nc3oc(C(=O)C(C)(C)C)c(C(N)=O)c3cc2-c2ccc(Cl)cc2)c(Cl)c1` [Example 3, 6-[2-chloro-4-(3-methyl-1H-pyrazol-4-yl)phenyl]-5-(4-chlorophenyl)-2-(2,2-dimethylpropanoyl)furo[2,3-b]pyridine-3-carboxamide], in that order: 1 nM, < 20 nM, “functional inverse agonists” and 9%.
In the same order, the values of `CC(C)(C)C(=O)c1oc2nc(-c3ccc(-c4cn[nH]c4)cc3Cl)c(-c3ccc(Cl)cc3)cc2c1N` [Example 7, 1-{3-Amino-5-(4-chlorophenyl)-6-[2-chloro-4-(1H-pyrazol-4-yl)phenyl]furo[2,3-b]pyridin-2-yl}-2,2-dimethylpropan-1-one] are 1 nM, < 20 nM, “functional inverse agonists” and 17%.
In the same order, the values of `Cc1c(S(=O)(=O)C(C)(C)C)oc2nc(-c3ccc(-c4cn[nH]c4)cc3Cl)c(-c3ccc(Cl)cc3)cc12` [Example 11, 2-(Tert-butylsulfonyl)-5-(4-chlorophenyl)-6-[2-chloro-4-(1H-pyrazol-4-yl)phenyl]-3-methylfuro[2,3-b]pyridine] are 1 nM, < 20 nM, “functional inverse agonists” and 7%.
Regarding `Cc1n[nH]cc1-c1ccc(-c2nc3oc(C(=O)C(C)(C)C)c(CO)c3cc2-c2ccc(Cl)cc2)c(Cl)c1` [Example 37, 1-[6-[2-Chloro-4-(3-methyl-1H-pyrazol-4-yl)phenyl]-5-(4-chlorophenyl)-3-(hydroxymethyl)furo[2,3-b]pyridin-2-yl]-2,2-dimethylpropan-1-one], the IC50 in experiment [1] (setting [4]) came out at 1 nM. For the same molecule, in experiment [2] (setting [5]), the EC50 is < 20 nM. In addition, the “functional mode at CB1 receptor” value in experiment [2] is “functional inverse agonists”. Further, the “% GABA Example” value in experiment [3] turned out to be 14%.
For `CC(=O)c1c(C(=O)C(C)C)oc2nc(-c3ccc(-c4c[nH]nc4C)cc3Cl)c(-c3ccc(Cl)cc3)cc12` [Example 38, 1-[3-Acetyl-6-[2-chloro-4-(3-methyl-1H-pyrazol-4-yl)phenyl]-5-(4-chlorophenyl)furo[2,3-b]pyridin-2-yl]-2-methylpropan-1-one], in that order: 3 nM, < 20 nM, “functional inverse agonists” and 39%.
Turning to `CC(=O)c1c(C(=O)C(C)(C)C)oc2nc(-c3ccc(-c4c[nH]nc4C)cc3Cl)c(-c3ccc(Cl)cc3)cc12` [Example 40, 1-[3-Acetyl-6-[2-chloro-4-(3-methyl-1H-pyrazol-4-yl)phenyl]-5-(4-chlorophenyl)furo[2,3-b]pyridin-2-yl]-2,2-dimethylpropan-1-one], the IC50 in experiment [1] stood at 1 nM. In addition, in experiment [2], the EC50 is < 20 nM and the “functional mode at CB1 receptor” value is “functional inverse agonists”. Further, in experiment [3], the “% GABA Example” value is recorded as 12%.
With `CC(=O)Nc1c(C(=O)C(C)(C)O)oc2nc(-c3ccc(-c4c[nH]nc4C)cc3Cl)c(-c3ccc(Cl)cc3)cc12` [Example 41, N-[6-[2-Chloro-4-(3-methyl-1H-pyrazol-4-yl)phenyl]-5-(4-chlorophenyl)-2-(2-hydroxy-2-methylpropanoyl)furo[2,3-b]pyridin-3-yl]acetamide], in experiment [1] (setting [4]), the IC50 is 5 nM. The EC50 in experiment [2] (setting [5]) was < 20 nM. For the same molecule, in experiment [2], the “functional mode at CB1 receptor” value is “functional inverse agonists”. The “% GABA Example” value in experiment [3] is 35%.
In the same order, the values of `CC(C)(C)C(=O)c1oc2nc(-c3ccc(-c4ncon4)cc3Cl)c(-c3ccc(Cl)cc3)cc2c1NC(=O)CO` [Example 43, N-[6-[2-Chloro-4-(1,2,4-oxadiazol-3-yl)phenyl]-5-(4-chlorophenyl)-2-(2,2-dimethylpropanoyl)furo[2,3-b]pyridin-3-yl]-2-hydroxyacetamide] are 0.4 nM, < 20 nM, “functional inverse agonists” and 41%.
